# Reference: US20250170248A1, “SMARCA DEGRADERS AND USES THEREOF” (Kymera Therapeutics, Inc., priority 2021, published 2025)
# Assays:
# Assay type in all cases: cell-based
# [1] = target: T1, SMARCA2 (Homo sapiens, UniProt P51531); assay: SMARCA2 Western blot degradation in MV4-11 cells; design: SMARCA2/SMARCA4 protein degradation selectivity in MV4-11 cells; endogenous in cells; host or cells: MV4-11; settings: for Dmax: MV4-11, MV4-11 cells, read-out: SMARCA2 MSD MV411 degradation 24 h: average Dmax %; for Dmax / DC50 / SMARCA2 MSD MV411 degradation 24 h: average Dmax %: 24 h; for DC50 / Selectivity in MV411 / SMARCA2 MSD MV411 degradation 24 h: average Dmax %: MV4-11 cells; for DC50: read-out: SMARCA2 MSD MV411 degradation 24 h: Mean external-Abs DC50; for Selectivity in MV411: SMARCA2/4 selectivity
# [2] = target: T2, SMARCA4 (Homo sapiens, UniProt P51532); assay: SMARCA4 Western blot degradation in MV4-11 cells; settings: for Dmax: MV4-11, MV4-11 cells, read-out: SMARCA4 MSD MV411 degradation 24 h: average Dmax %; for Dmax / DC50: 24 h; for DC50 / SMARCA4 MSD MV411 degradation 24 h: average Dmax %: MV4-11 cells; for DC50: read-out: SMARCA4 MSD MV411 degradation 24 h: Mean external-Abs DC50
# T2 construct: SMARCA2/SMARCA4 protein degradation selectivity in MV4-11 cells; endogenous in cells; host or cells: MV4-11
# Outline: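 Fluorescent LI-COR imaging of Western blots quantified SMARCA2 and SMARCA4 protein remaining in MV4-11 cells after 24 h of compound treatment. β-actin was the loading control, and DC50, Dmax and SMARCA2/4 selectivity are given as letter-coded ranges.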
# [3] = target: T1, SMARCA2; assay: MSD SMARCA2 degradation in A549 cell line; settings: for Dmax: A549, A549 cells; for Dmax / DC50: 24 h; for DC50: read-out: SMARCA2 MSD A549 degradation 24 h: Average external-Abs DC50
# Outline: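 SMARCA2 protein remaining after 24 h exposure of A549 cells (top concentration 1000 nM, 3-fold dilutions) was measured by MSD electrochemiluminescence immunoassay of cell lysates. Results are given as binned DC50 and maximal degradation (Dmax) codes.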
# T1 sequence (P51531 whole entry): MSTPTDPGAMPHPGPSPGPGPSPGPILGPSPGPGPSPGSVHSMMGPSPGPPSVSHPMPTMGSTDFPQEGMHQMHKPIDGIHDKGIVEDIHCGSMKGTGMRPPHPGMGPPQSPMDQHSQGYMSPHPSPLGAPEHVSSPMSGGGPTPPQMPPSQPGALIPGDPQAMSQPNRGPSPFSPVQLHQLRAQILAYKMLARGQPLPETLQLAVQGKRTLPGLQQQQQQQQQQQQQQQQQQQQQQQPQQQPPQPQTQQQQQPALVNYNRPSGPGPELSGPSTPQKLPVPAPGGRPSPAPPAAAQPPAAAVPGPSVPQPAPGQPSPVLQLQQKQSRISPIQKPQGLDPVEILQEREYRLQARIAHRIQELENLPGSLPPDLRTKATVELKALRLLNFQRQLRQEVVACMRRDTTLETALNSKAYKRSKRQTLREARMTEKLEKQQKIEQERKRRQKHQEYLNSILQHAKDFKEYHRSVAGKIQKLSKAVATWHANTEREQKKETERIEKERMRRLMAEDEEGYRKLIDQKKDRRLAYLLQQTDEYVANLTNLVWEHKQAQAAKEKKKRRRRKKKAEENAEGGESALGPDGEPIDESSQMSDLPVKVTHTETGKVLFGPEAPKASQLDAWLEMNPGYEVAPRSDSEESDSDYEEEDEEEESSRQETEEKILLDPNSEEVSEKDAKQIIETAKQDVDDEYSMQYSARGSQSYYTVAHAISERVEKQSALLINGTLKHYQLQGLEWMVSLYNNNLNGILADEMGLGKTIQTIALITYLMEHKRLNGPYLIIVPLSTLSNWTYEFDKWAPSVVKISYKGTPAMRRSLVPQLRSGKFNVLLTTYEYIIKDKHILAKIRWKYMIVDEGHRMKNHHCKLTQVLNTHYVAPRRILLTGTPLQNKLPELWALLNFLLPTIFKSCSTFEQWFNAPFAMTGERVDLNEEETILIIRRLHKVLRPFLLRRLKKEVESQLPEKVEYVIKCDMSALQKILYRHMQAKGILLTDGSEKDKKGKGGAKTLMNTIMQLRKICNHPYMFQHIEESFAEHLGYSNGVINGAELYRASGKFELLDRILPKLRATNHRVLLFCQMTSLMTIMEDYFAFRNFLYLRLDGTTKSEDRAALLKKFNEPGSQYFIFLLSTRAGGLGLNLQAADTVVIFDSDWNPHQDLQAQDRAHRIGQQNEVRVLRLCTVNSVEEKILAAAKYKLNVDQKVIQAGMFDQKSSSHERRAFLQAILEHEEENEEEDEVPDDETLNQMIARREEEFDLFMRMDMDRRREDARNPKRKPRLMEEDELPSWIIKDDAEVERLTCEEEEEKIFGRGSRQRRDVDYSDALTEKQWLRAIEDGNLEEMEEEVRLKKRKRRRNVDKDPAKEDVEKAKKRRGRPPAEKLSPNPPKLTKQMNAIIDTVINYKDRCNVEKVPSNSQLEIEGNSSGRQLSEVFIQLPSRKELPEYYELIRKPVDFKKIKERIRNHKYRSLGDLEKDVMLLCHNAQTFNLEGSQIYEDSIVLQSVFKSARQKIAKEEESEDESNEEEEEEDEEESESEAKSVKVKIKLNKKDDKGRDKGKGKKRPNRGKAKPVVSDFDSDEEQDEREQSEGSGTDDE
# T2 sequence (P51532 whole entry): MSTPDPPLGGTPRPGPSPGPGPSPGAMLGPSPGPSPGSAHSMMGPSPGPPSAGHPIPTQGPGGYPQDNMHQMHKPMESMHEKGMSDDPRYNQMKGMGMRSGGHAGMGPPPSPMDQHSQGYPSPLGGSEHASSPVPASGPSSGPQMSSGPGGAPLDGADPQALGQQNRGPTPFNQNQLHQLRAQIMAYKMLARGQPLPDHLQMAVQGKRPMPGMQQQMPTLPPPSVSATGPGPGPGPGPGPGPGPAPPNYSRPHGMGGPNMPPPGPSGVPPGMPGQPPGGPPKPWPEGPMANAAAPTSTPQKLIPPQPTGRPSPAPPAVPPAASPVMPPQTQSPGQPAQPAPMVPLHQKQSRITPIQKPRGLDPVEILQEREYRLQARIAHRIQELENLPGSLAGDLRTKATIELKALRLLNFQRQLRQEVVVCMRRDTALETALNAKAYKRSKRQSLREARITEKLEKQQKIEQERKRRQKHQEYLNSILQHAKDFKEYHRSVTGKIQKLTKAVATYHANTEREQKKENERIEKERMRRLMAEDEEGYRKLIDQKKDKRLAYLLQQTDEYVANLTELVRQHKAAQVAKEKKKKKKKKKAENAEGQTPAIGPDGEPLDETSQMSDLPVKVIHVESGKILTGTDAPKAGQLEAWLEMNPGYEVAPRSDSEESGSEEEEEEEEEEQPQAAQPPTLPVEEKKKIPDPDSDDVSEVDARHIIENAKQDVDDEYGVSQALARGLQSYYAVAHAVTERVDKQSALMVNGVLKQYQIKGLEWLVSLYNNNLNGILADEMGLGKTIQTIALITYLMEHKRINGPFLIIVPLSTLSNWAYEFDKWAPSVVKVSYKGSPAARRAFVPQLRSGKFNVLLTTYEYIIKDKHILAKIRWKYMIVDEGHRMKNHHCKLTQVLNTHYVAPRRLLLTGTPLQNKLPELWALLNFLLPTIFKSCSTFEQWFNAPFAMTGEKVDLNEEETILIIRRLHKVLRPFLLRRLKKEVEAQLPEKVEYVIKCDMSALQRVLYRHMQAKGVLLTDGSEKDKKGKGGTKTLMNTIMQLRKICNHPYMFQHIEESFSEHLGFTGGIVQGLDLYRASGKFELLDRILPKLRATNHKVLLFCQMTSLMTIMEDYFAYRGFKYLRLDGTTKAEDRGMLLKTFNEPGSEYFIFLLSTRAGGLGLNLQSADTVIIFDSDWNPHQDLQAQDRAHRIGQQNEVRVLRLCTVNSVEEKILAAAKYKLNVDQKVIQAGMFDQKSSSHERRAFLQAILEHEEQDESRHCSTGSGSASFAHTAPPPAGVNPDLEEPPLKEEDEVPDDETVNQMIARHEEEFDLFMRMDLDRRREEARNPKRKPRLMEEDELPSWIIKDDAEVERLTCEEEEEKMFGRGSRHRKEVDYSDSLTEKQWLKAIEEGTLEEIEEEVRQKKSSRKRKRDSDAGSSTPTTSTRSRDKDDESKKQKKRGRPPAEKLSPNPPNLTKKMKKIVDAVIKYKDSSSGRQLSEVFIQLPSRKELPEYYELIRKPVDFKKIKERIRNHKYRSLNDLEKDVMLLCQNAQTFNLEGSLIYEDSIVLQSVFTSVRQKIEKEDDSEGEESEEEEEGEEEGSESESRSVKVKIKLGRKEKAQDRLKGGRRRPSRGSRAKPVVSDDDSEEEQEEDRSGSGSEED
Structure (SMILES),Dmax [1],DC50 [1],Selectivity in MV411 [1],Dmax [2],DC50 [2],Dmax [3],DC50 ([3]; A549 cells),SMARCA2 MSD MV411 degradation 24 h: average Dmax % [1],SMARCA4 MSD MV411 degradation 24 h: average Dmax % [2],SMARCA2 MSD A549 degradation 24 h: Average Dmax % ([3]; A549 cells)
C#Cc1ccc(CNC(=O)[C@@H]2C[C@@H](O)CN2C(=O)[C@@H](NC(=O)N2CC3(CC(CN4CCC(c5cnc(N6CCc7[nH]c8nnc(-c9ccccc9O)cc8c7[C@H]6C)nc5)CC4)C3)C2)C(C)(C)C)cc1 [I-410],70 to 90%,1 to 10 nM,C (C (10-100 fold)),70 to 90%,> 100 nM,> 90%,10 to 50 nM,,,
C#Cc1ccc(CNC(=O)[C@@H]2C[C@@H](O)CN2C(=O)[C@@H](NC(=O)[C@H]2CC3(C2)C[C@H](N2CCN(C(=O)CCN4CCN5c6cc(-c7ccccc7O)nnc6NC[C@H]5C4)CC2)C3)C(C)(C)C)cc1 (stereo partly shown) [I-275],,1 to 10 nM,C (C (10-100 fold)),,10 to 100 nM,,> 100 nM,,,
C#Cc1ccc(CNC(=O)[C@@H]2C[C@@H](O)CN2C(=O)[C@@H](NC(=O)N2CC3(CC(N4C[C@H]5CN(c6cnc(N7CCc8[nH]c9nnc(-c%10ccccc%10O)cc9c8[C@@H]7C)nc6)C[C@H]5C4)C3)C2)C(C)(C)C)cc1 [I-172],50 to 70%,10 to 100 nM,C (C (10-100 fold)),70 to 90%,> 100 nM,> 90%,> 100 nM,,,
C#Cc1ccc([C@H](C)NC(=O)[C@@H]2C[C@@H](O)CN2C(=O)[C@@H](NC(=O)N2CC3(CC(N4CCC(c5cnc(N6CCc7[nH]c8nnc(-c9ccccc9O)cc8c7[C@H]6C)nc5)CC4)C3)C2)C(C)(C)C)c(OC)c1 [I-167],70 to 90%,1 to 10 nM,C (C (10-100 fold)),70 to 90%,> 100 nM,> 90%,10 to 50 nM,,,
C#Cc1ccc(CNC(=O)[C@@H]2C[C@@H](O)CN2C(=O)[C@@H](NC(=O)N2CC3(CC(N4CCC(c5cnc(N6CCc7[nH]c8nnc(-c9ccccc9O)cc8c7[C@H]6C)nc5)CC4)C3)C2)C(C)(C)C)cc1F [I-310],> 90%,1 to 10 nM,C (C (10-100 fold)),> 90%,> 100 nM,> 90%,10 to 50 nM,,,
"C#Cc1ccc(CNC(=O)[C@@H]2C[C@@H](O)CN2C(=O)[C@@H](NC(=O)C2CCC3(CC2)CC(N2CCC(N4CCC[C@H](C(=O)N5CCN6c7cc(-c8ccccc8O)nnc7NC[C@H]6C5)C4)CC2)C3)C(C)(C)C)cc1 (single isomer, unassigned) [I-90]",70 to 90%,10 to 100 nM,C (C (10-100 fold)),< 50%,> 100 nM,70 to 90%,> 100 nM,,,
"C#Cc1ccc(CNC(=O)[C@@H]2C[C@@H](O)CN2C(=O)[C@@H](NC(=O)[C@H]2CCC3(CC2)C[C@H](N2CCC(N4CCC(N5CCN6c7cc(-c8ccccc8O)nnc7NC[C@H]6C5)CC4)CC2)C3)C(C)(C)C)c(OC)c1 (single isomer, unassigned) [I-177]",70 to 90%,10 to 100 nM,C (C (10-100 fold)),50 to 70%,> 100 nM,> 90%,> 100 nM,,,
C#Cc1ccc(CNC(=O)[C@@H]2C[C@@H](O)CN2C(=O)[C@@H](NC(=O)N2CCN(C[C@H]3CC[C@H](N4CCc5[nH]c6nnc(-c7ccccc7O)cc6c5[C@H]4C)CC3)CC2)C(C)(C)C)cc1 [I-200],50 to 70%,10 to 100 nM,C (C (10-100 fold)),< 50%,> 100 nM,> 90%,> 100 nM,,,
C#Cc1ccc(CNC(=O)[C@@H]2C[C@@H](O)CN2C(=O)[C@@H](NC(=O)N2CC3(CC(N4CCC(c5cnc(N6CCc7[nH]c8nnc(-c9ccccc9O)cc8c7[C@H]6C)nc5)CC4)C3)C2)C(C)(C)C)c(OCC(=O)O)c1 [I-144],70 to 90%,1 to 10 nM,C (C (10-100 fold)),70 to 90%,> 100 nM,> 90%,10 to 50 nM,,,
"Cc1ncsc1-c1ccc(CNC(=O)[C@@H]2C[C@@H](O)CN2C(=O)[C@@H](NC(=O)N2CC3(CCC(N4CCC(c5cnc(N6CCc7[nH]c8nnc(-c9ccccc9O)cc8c7[C@@H]6C)nc5)CC4)CC3)C2)C(C)(C)C)cc1 (single isomer, unassigned) [I-63]",70 to 90%,10 to 100 nM,C (C (10-100 fold)),50 to 70%,> 100 nM,> 90%,10 to 50 nM,,,
C#Cc1ccc(CNC(=O)[C@@H]2C[C@@H](O)CN2C(=O)[C@@H](NC(=O)N2CC3(CC(N4CCC(c5cnc(N6CCc7[nH]c8nnc(-c9ccccc9O)cc8c7[C@H]6C)nc5)CC4)C3)C2)C(C)(C)C)cc1OC [I-319],70 to 90%,1 to 10 nM,B (B (>100-500 fold)),50 to 70%,> 100 nM,> 90%,10 to 50 nM,,,
"C#Cc1ccc(CNC(=O)[C@@H]2C[C@@H](O)CN2C(=O)[C@@H](NC(=O)[C@H]2CCC3(CC2)C[C@H](N2CCC(c4cnc(N5CCN6c7cc(-c8ccccc8O)nnc7NC[C@H]6C5)nc4)CC2)C3)C(C)(C)C)c(F)c1 (single isomer, unassigned) [I-116]",,1 to 10 nM,B (B (>100-500 fold)),,> 100 nM,,10 to 50 nM,B (B (>70-90% degradation)),D (D (<50% degradation)),A (A (>90% degradation))

# Next, values leading:
Dmax [1],DC50 [1],Selectivity in MV411 [1],Dmax [2],DC50 [2],Dmax [3],DC50 ([3]; A549 cells),SMARCA2 MSD MV411 degradation 24 h: average Dmax % [1],SMARCA4 MSD MV411 degradation 24 h: average Dmax % [2],SMARCA2 MSD A549 degradation 24 h: Average Dmax % ([3]; A549 cells),Structure (SMILES)
50 to 70%,10 to 100 nM,B (B (>100-500 fold)),50 to 70%,> 100 nM,> 90%,> 100 nM,,,,C#Cc1ccc(CNC(=O)[C@@H]2C[C@@H](O)CN2C(=O)[C@@H](NC(=O)N2CCN(CC3CCN(c4cnc(N5CCc6[nH]c7nnc(-c8ccccc8O)cc7c6[C@H]5C)nc4)CC3)CC2)C(C)(C)C)cc1 [I-159]
< 50%,> 100 nM,C (C (10-100 fold)),< 50%,> 100 nM,70 to 90%,> 100 nM,,,,C#Cc1ccc(CNC(=O)[C@@H]2C[C@@H](O)CN2C(=O)[C@@H](NC(=O)N2CCN(CC3CCN([C@H]4CC[C@H](N5CCc6[nH]c7nnc(-c8ccccc8O)cc7c6[C@H]5C)CC4)CC3)CC2)C(C)(C)C)cc1 [I-204]
50 to 70%,10 to 100 nM,C (C (10-100 fold)),< 50%,> 100 nM,> 90%,> 100 nM,,,,"C#Cc1ccc(CNC(=O)[C@@H]2C[C@@H](O)CN2C(=O)[C@@H](NC(=O)[C@H]2CCC3(CC2)C[C@H](N2CCC(N4CCC(N5CCN6c7cc(-c8ccccc8O)nnc7NC[C@H]6C5)CC4)CC2)C3)C(C)(C)C)c(Cl)c1 (single isomer, unassigned) [I-221]"
> 90%,< 1 nM,D (D (<10 fold)),> 90%,1 to 10 nM,> 90%,10 to 50 nM,,,,"Cc1ncsc1-c1ccc(CNC(=O)[C@@H]2C[C@@H](O)CN2C(=O)C(c2cc(N3CC4(CC(N5CCC(c6cnc(N7CCc8[nH]c9nnc(-c%10ccccc%10O)cc9c8[C@H]7C)nc6)CC5)C4)C3)no2)C(C)C)cc1 (single isomer, unassigned) [I-10]"
70 to 90%,10 to 100 nM,D (D (<10 fold)),> 90%,10 to 100 nM,70 to 90%,50 to 100 nM,,,,"Cc1ncsc1-c1ccc(CNC(=O)[C@@H]2C[C@@H](O)CN2C(=O)C(c2cc(N3CCC4(CC3)CC(N3CCC(c5cnc(N6CCc7[nH]c8nnc(-c9ccccc9O)cc8c7[C@@H]6C)nc5)CC3)C4)no2)C(C)C)cc1 (single isomer, unassigned) [I-12]"
,1 to 10 nM,C (C (10-100 fold)),,> 100 nM,> 90%,< 10 nM,B (B (>70-90% degradation)),C (C (50-70% degradation)),,"C#Cc1ccc(CNC(=O)[C@@H]2C[C@@H](O)CN2C(=O)[C@@H](NC(=O)[C@H]2CCC3(CC2)C[C@H](N2CCC(c4cnc(N5CCN6c7cc(-c8ccccc8O)nnc7NC[C@H]6C5)nc4)CC2)C3)C(C)(C)C)c(OC)c1 (single isomer, unassigned) [I-125]"
> 90%,1 to 10 nM,C (C (10-100 fold)),50 to 70%,> 100 nM,> 90%,> 100 nM,,,,"C#Cc1ccc([C@H](C)NC(=O)[C@@H]2C[C@@H](O)CN2C(=O)[C@@H](c2cc(OCCN3CCN4c5cc(-c6ccccc6O)nnc5NC[C@H]4C3)no2)C(C)C)cc1 (single isomer, unassigned) [I-273]"
